Test results as given in EPA's ToxValDB 9.5.
Several values for one entry are separate records, joined by “and”; a condition that tells them apart may be missing. Identical values can stand only once.

Experiments:
Mus musculus = conditions: oral
Monkey = conditions: oral, Cynomolgus
Oryctolagus sp. = conditions: duration: 15 days, oral, F, New Zealand
[1] = developmental, duration: 17 days, F, B6C3F1, Developmental: 42.5% reduced NK cell activity in male pups at 8 weeks of age
[2] = reproduction developmental, duration: 17 days, F, CD1, Endocrine: Decreased total T4 on GD 6
[3] = short-term, duration: 21 days, M, CD1, Body Weight: ~15% reduced body weight + Reproductive: ~17% reduced serum testosterone, ~38% reduced epididymal sperm count
[4] = short-term, duration: 28 days, M, B6C3F1, Immunotoxicological: Suppressed response to sRBC (~60%)
[5] = subchronic, duration: 60 days, M, Immunotoxicological: Impaired response to sRBC
[6] = chronic, duration: 26 weeks, M/F, Endocrine: Increased TSH and decreased total T3 + Hepatic: 47-55% increased absolute liver weight / 50-60% decreased serum cholesterol / …
[7] = reproduction developmental, Body Weight: 21% decreased mean maternal body weight gain on GDs 7-21 / no effect on food consumption

Compound: O=S(=O)([O-])C(F)(F)C(F)(F)C(F)(F)C(F)(F)C(F)(F)C(F)(F)C(F)(F)C(F)(F)F.[K+] [Potassium perfluorooctanesulfonate]
- LOAEL (Mus musculus; developmental, duration: 4 weeks, M, CD1, Developmental: Impaired retention of the task in the water maze test): 3 mg/kg-day
- LOAEL (Mus musculus; developmental, duration: 1 days, M, CD1, Developmental: 24% decreased total spontaneous activity at 2 months of age / no significant alteration at 4 months): 0.75 mg/kg-day
- LOAEL (Mus musculus; developmental, duration: 4 days, F, Developmental: 31% reduced percentage of live pups per litter on PND 15): 4.5 mg/kg-day
- LOAEL (Mus musculus; developmental, duration: 5 days, F, ICR, Developmental: 6.1% increased cleft palate and 12.7% reduced body weight in fetuses): 50 mg/kg-day
- NOAEL (Mus musculus; developmental, duration: 7 days, F, CD1): 6 mg/kg-day
- LOAEL (Mus musculus; developmental, duration: 7 days, F, CD1, Developmental: Decreased distance traveled in open field test at 3 months of age): 6 mg/kg-day
- LOAEL (Mus musculus; developmental, duration: 7 days, F, CD1, Developmental: Reduced body weight of pups on PNDs 4 and 8): 6 mg/kg-day
- LOAEL (Mus musculus; [1]): 1 mg/kg-day
- NOAEL (Mus musculus; [1]): 0.1 mg/kg-day
- NOAEL (Mus musculus; developmental, duration: 17 days, F, CD1, Developmental: Increased incidences of sternal defects at ?5 mg/kg/day / reduced percentage of live fetuses (9%) at 20 mg/kg/day): 1 mg/kg-day
- NOAEL (Mus musculus; developmental, duration: 17 days, F, CD1, Developmental: Peroxisome proliferation in fetal liver at ?5 mg/kg/day): 5 mg/kg-day
- LOAEL (Mus musculus; developmental, duration: 17 days, F, ICR, Body Weight: 35% reduced maternal body weight + Developmental: 89% increased cleft palate, 25% reduced body weight in fetuses): 20 mg/kg-day
- LOAEL (Mus musculus; developmental, duration: 18 days, F, ICR, Developmental: GDs 0-18: decreased survival (55.2%) at 10 mg/kg/day on PND 4, decreased neonatal BW, intracranial blood vessel dilatation, …): 10 mg/kg-day
- NOAEL (Mus musculus; developmental, duration: 18 days, F, ICR, Hepatic: 60% increased absolute liver weight at ?10 mg/kg/day): 20 mg/kg-day
- LOAEL (Mus musculus; developmental, duration: 21 days, F, Developmental: Decreased locomotion, muscle strength, and motor coordination in adult offspring): 0.3 mg/kg-day
- NOAEL (Mus musculus; reproduction developmental, duration: 5 days, F, ICR, […] increased maternal relative liver weight): 50 mg/kg-day
- NOAEL (Mus musculus; reproduction developmental, duration: 13 days, F, CD1, Endocrine: No alterations in serum T3 or T4 levels + Hepatic: 21% increase in absolute liver weight at ?3 mg/kg/day): 6 mg/kg-day
- LOAEL (Mus musculus; [2]): 20 mg/kg-day
- NOAEL (Mus musculus; [2]): 15 mg/kg-day
- NOAEL (Mus musculus; reproduction developmental, duration: 17 days, F, CD1, Increase in absolute and relative liver weight and decreased serum triglycerides at ?5 mg/kg/day): 20 mg/kg-day
- NOAEL (Mus musculus; short-term, duration: 14 days, M, CD1, Hepatic: ~70% increased absolute liver weight at ?5 mg/kg/day): 10 mg/kg-day
- LOAEL (Mus musculus; [3]): 10 mg/kg-day
- NOAEL (Mus musculus; [3]): 5 mg/kg-day
- NOAEL (Mus musculus; short-term, duration: 21 days, M, CD1, Hepatic: Increased absolute liver weight at ?5 mg/kg/day): 10 mg/kg-day
- LOAEL (Mus musculus; [4]): 0.00166 mg/kg-day
- NOAEL (Mus musculus; [4]): 0.000166 mg/kg-day
- LOAEL (Mus musculus; [5]): 0.0833 mg/kg-day
- NOAEL (Mus musculus; [5]): 0.0083 mg/kg-day and 0.0167 mg/kg-day
- NOAEL (Monkey; chronic, duration: 26 weeks, F): 0.75 mg/kg-day
- LOAEL (Monkey; [6]): 0.75 mg/kg-day
- NOAEL (Monkey; [6]): 0.15 mg/kg-day
- NOAEL (Monkey; chronic, duration: 26 weeks, M/F, Neurological: No histological alterations): 0.75 mg/kg-day
- NOAEL (Monkey; chronic, duration: 26 weeks, M, Body Weight: 13.5% reduction in final body weight): 0.15 mg/kg-day
- LOAEL (Monkey; chronic, duration: 26 weeks, M, Body Weight: 13.5% reduction in final body weight + Reproductive: Significant decrease in serum estradiol on days 62 (48%), 91 (42%), and …): 0.75 mg/kg-day
- NOAEL (Monkey; chronic, duration: 315 days, M): 13.3 mg/kg-day
- LOAEL (Monkey; chronic, duration: 315 days, M, Endocrine: Decreased serum T4 / values still within normal range + Hepatic: Decrease in HDL cholesterol / values still within normal range): 13.3 mg/kg-day
- NOAEL (Monkey; short-term, duration: 4 weeks, M/F, Immunotoxicological: No histological alteration + Reproductive: No histological alterations): 2 mg/kg-day
- NOAEL (Oryctolagus sp.; developmental, Developmental: Decreased fetal body weight / 10% at […] and 24% at 3.75 mg/kg/day / 10/22 does aborted between GD 22 and 28 at 3.75 mg/kg/…): 1 mg/kg-day
- LOAEL (Oryctolagus sp.; [7]): 1 mg/kg-day
- NOAEL (Oryctolagus sp.; [7]): 0.1 mg/kg-day
